Assay results: article PMC9527238, “Glutamate and GABAA receptor crosstalk mediates homeostatic regulation of neuronal excitation in the mammalian brain” (Signal Transduction and Targeted Therapy, 2022)

What was measured:
Format in all cases: cell-based
αK104Wβγ GABAAR = target: T1, αK104Wβγ GABAAR (Rattus norvegicus, UniProt P62813+P63138, K131W); assay: Patch clamp, HEK293, mutant GABAAR; conditions: HEK293, read-out: Glutamate potentiation of GABA currents, % of control, normalized to wild-type α1β2γ2
T1 construct: expressed in transfected cells; host or cells: HEK293
Source text: (§1) To further determine the relative significance between the electrostatic and the side chain steric arrangements of these critical amino acid residues in their interaction with glutamate, we next studied the effects of substitution of these amino acids with amino acids of various sizes or charges on the glutamate potentiation. We substituted α1K104, α1E137, α1K155, or β2E181 with […], a non-charged amino acid, in order to perturb the electrostatic accessibility of glutamate to the binding pocket.
(§2) Fig. 4 Property characterization of glutamate binding sites in HEK cells expressing wild-type or mutated αβγ GABAARs. a, b The effects of electrostatic charge and/or size of the pocket-forming residues on glutamate-induced functional modulation.
(§3) HEK293 cells were cultured in DMEM (Invitrogen) supplemented with 10% fetal bovine serum. Cells were grown to 40–60% confluence and transiently transfected using Lipofectamine 2000 (Invitrogen) with 1:0.5–1 plasmid/lipid ratio. Cells were transfected with a pBK-CMV expression vector containing a rat recombinant GABAAR α, β or γ subunits. Co-transections were done with a plasmid ratio of 1:1 αβ and 2:2:1 for αβγ subunit combinations, respectively. pcDNA3.1-GFP was also co-transfected along with GABAAR subunits as a transfected marker in order to facilitate the visualization of the transfected cells during electrophysiological experiments. Cells were re-plated on glass coverslips after 15–20 h transfection and were cultured for an additional 15–24 h before whole-cell patch-clamp recordings.
(§4) The site-directed mutagenesis of α, β or γ subunits were performed by using the QuikChange method (Stratagene). […] Wild-type or mutant subunits were transfected in HEK293 cells and subjected to electrophysiology examinations.
(§5) Whole-cell patch-clamp recordings were performed under voltage-clamp mode using an Axopatch 200B or 1D patch-clamp amplifier (Molecular Devices) on HEK293 cells and cultured neurons. Whole-cell currents were recorded at a holding potential of −60 mV, and signals were filtered at 2 kHz, digitized at 10 kHz (Digidata 1322 A). Recording pipettes (3–5 MΩ) were filled with the intracellular solution that contained (mM): CsCl 140, HEPES 10, Mg-ATP 4, QX-314 5, pH 7.20; osmolarity, 290–295 mOsm. BAPTA (10 mM) was added in the intracellular solution. The coverslips were continuously superfused with the extracellular solution containing (mM): NaCl 140, KCl 5.4, HEPES 10, MgCl2 1.0, CaCl2 1.3, glucose 20, pH 7.4; osmolarity, 305–315 mOsm. […] Dose–response curves were created by fitting data to Hill equation: I = Imax/[1 + (EC50/[A])^n], where I is the current, Imax is the maximum current, [A] is a given concentration of agonist, n is the Hill coefficient. […] All experiments were performed at room temperature.

αβE181Dγ GABAAR = target: T2, αβE181Dγ GABAAR (Rattus norvegicus, UniProt P62813+P63138, E206D); assay: Patch clamp, HEK293, mutant GABAAR; conditions: HEK293, read-out: Glutamate potentiation of GABA currents, % of control, normalized to wild-type α1β2γ2
T2 construct: expressed in transfected cells; host or cells: HEK293
Source text: as §1, §2, §3, §4, §5

αβE181Wγ GABAAR = target: T3, αβE181Wγ GABAAR (Rattus norvegicus, UniProt P62813+P63138, E206W); assay: Patch clamp, HEK293, mutant GABAAR; conditions: HEK293, read-out: Glutamate potentiation of GABA currents, % of control, normalized to wild-type α1β2γ2
T3 construct: expressed in transfected cells; host or cells: HEK293
Source text: as §1, §2, §3, §4, §5

αK155Rβγ GABAAR = target: T4, αK155Rβγ GABAAR (Rattus norvegicus, UniProt P62813+P63138, K182R); assay: Patch clamp, HEK293, mutant GABAAR; conditions: HEK293, read-out: Glutamate potentiation of GABA currents, % of control, normalized to wild-type α1β2γ2
T4 construct: expressed in transfected cells; host or cells: HEK293
Source text: as §1, §2, §3, §4, §5

αE137Wβγ GABAAR = target: T5, αE137Wβγ GABAAR (Rattus norvegicus, UniProt P62813+P63138, E164W); assay: Patch clamp, HEK293, mutant GABAAR; conditions: HEK293, read-out: Glutamate potentiation of GABA currents, % of control, normalized to wild-type α1β2γ2
T5 construct: expressed in transfected cells; host or cells: HEK293
Source text: as §1, §2, §3, §4, §5

αE137Dβγ GABAAR = target: T6, αE137Dβγ GABAAR (Rattus norvegicus, UniProt P62813+P63138, E164D); assay: Patch clamp, HEK293, mutant GABAAR; conditions: HEK293, read-out: Glutamate potentiation of GABA currents, % of control, normalized to wild-type α1β2γ2
T6 construct: expressed in transfected cells; host or cells: HEK293
Source text: as §1, §2, §3, §4, §5

αK155Wβγ GABAAR = target: T7, αK155Wβγ GABAAR (Rattus norvegicus, UniProt P62813+P63138, K182W); assay: Patch clamp, HEK293, mutant GABAAR; conditions: HEK293, read-out: Glutamate potentiation of GABA currents, % of control, normalized to wild-type α1β2γ2
T7 construct: expressed in transfected cells; host or cells: HEK293
Source text: as §1, §2, §3, §4, §5

α2/β2/γ2 GABAARs = target: T8, α2/β2/γ2 GABAARs (Rattus norvegicus, UniProt P23576+P63138); assay: Patch clamp, HEK293, α2-containing GABAAR; conditions: wild-type α2/β2/γ2
T8 construct: expressed in transfected cells; host or cells: HEK293

α1^Y159A β2 γ2 GABAAR = target: T9, α1^Y159A β2 γ2 GABAAR (Rattus norvegicus, UniProt P62813+P63138, Y186A); assay: Patch clamp, HEK293, mutant GABAAR; conditions: glutamate 100 μM co-applied with GABA 1 μM; normalized to wild-type α1β2γ2
T9 construct: expressed in transfected cells; host or cells: HEK293
Experimental: (§6) To positively confirm one of these two putative binding sites involved in glutamate binding, we performed a systemic mutational analysis of critical amino acids around these two sites followed by electrophysiological characterizations of their impacts on glutamate potentiation in HEK293 cells expressing wild-type or mutated α1β2γ2 GABAARs (Table 1).
as §3, §4, §5

α1^E208A β2 γ2 GABAAR = target: T10, α1^E208A β2 γ2 GABAAR (Rattus norvegicus, UniProt P62813+P63138, E235A); assay: Patch clamp, HEK293, mutant GABAAR; conditions: glutamate 100 μM co-applied with GABA 1 μM; normalized to wild-type α1β2γ2
T10 construct: expressed in transfected cells; host or cells: HEK293
Experimental: as §6, §3, §4, §5

α1 β2 ^I180A γ2 GABAAR = target: T11, α1 β2 ^I180A γ2 GABAAR (Rattus norvegicus, UniProt P62813+P63138, I205A); assay: Patch clamp, HEK293, mutant GABAAR; conditions: glutamate 100 μM co-applied with GABA 1 μM; normalized to wild-type α1β2γ2
T11 construct: expressed in transfected cells; host or cells: HEK293
Experimental: as §6, §3, §4, §5

α1^S158A β2 γ2 GABAAR = target: T12, α1^S158A β2 γ2 GABAAR (Rattus norvegicus, UniProt P62813+P63138, S185A); assay: Patch clamp, HEK293, mutant GABAAR; conditions: glutamate 100 μM co-applied with GABA 1 μM; normalized to wild-type α1β2γ2
T12 construct: expressed in transfected cells; host or cells: HEK293
Experimental: as §6, §3, §4, §5

α1^T206A β2 γ2 GABAAR = target: T13, α1^T206A β2 γ2 GABAAR (Rattus norvegicus, UniProt P62813+P63138, T233A); assay: Patch clamp, HEK293, mutant GABAAR; conditions: glutamate 100 μM co-applied with GABA 1 μM; normalized to wild-type α1β2γ2
T13 construct: expressed in transfected cells; host or cells: HEK293
Experimental: as §6, §3, §4, §5

α1 β2^V177A γ2 GABAAR = target: T14, α1 β2^V177A γ2 GABAAR (Rattus norvegicus, UniProt P62813+P63138, V202A); assay: Patch clamp, HEK293, mutant GABAAR; conditions: glutamate 100 μM co-applied with GABA 1 μM; normalized to wild-type α1β2γ2
T14 construct: expressed in transfected cells; host or cells: HEK293
Experimental: as §6, §3, §4, §5

α1^F99A β2 γ2 GABAAR = target: T15, α1^F99A β2 γ2 GABAAR (Rattus norvegicus, UniProt P62813+P63138, F126A); assay: Patch clamp, HEK293, mutant GABAAR; conditions: glutamate 100 μM co-applied with GABA 1 μM; normalized to wild-type α1β2γ2
T15 construct: expressed in transfected cells; host or cells: HEK293
Experimental: as §6, §3, §4, §5

α1^S205A β2 γ2 GABAAR = target: T16, α1^S205A β2 γ2 GABAAR (Rattus norvegicus, UniProt P62813+P63138, S232A); assay: Patch clamp, HEK293, mutant GABAAR; conditions: glutamate 100 μM co-applied with GABA 1 μM; normalized to wild-type α1β2γ2
T16 construct: expressed in transfected cells; host or cells: HEK293
Experimental: as §6, §3, §4, §5

T1 sequence (P62813 28-455 K131W): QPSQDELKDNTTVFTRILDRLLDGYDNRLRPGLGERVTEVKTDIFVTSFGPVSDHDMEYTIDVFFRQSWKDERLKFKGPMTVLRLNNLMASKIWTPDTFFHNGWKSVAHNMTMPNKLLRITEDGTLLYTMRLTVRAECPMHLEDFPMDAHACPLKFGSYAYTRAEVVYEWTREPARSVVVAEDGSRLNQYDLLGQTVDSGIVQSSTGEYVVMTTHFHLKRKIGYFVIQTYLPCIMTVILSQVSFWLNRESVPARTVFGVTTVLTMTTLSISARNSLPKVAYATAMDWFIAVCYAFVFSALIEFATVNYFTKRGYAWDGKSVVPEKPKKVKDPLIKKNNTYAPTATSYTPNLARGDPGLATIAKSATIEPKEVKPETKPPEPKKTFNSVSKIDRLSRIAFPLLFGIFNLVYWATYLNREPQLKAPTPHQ
T1 sequence (P63138 26-474): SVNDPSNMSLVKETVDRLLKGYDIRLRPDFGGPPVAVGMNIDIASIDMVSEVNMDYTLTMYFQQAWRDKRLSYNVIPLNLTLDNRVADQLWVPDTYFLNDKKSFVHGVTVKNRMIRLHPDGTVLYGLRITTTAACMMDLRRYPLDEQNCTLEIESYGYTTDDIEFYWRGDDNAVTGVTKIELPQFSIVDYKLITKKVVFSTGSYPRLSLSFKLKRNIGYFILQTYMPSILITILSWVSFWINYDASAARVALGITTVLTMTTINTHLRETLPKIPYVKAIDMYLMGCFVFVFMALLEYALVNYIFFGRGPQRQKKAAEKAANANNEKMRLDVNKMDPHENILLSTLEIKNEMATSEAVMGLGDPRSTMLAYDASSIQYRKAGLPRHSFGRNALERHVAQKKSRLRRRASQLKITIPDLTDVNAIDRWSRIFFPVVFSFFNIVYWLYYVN
T1 sequence (P18508 39-466 partner): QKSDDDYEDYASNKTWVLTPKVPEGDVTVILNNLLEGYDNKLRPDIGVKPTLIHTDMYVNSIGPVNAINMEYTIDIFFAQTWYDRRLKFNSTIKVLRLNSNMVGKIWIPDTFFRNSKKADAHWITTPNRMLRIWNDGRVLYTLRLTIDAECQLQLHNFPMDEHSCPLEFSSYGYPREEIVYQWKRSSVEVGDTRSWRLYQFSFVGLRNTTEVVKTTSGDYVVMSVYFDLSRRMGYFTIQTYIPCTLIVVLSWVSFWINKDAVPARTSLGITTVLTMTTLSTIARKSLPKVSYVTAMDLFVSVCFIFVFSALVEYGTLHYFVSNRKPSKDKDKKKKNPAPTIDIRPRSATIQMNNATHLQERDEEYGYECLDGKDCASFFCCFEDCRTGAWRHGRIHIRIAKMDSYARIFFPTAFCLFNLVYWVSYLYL
T5 sequence (P62813 28-455 E164W): as the sequence (P62813 28-455 K131W) above, with W104K, E137W counted along it
T5 sequence (P63138 26-474): as the sequence (P63138 26-474) above
T5 sequence (P18508 39-466 partner): as the sequence (P18508 39-466 partner) above
T3 sequence (P62813 28-455): as the sequence (P62813 28-455 K131W) above, with W104K counted along it
T3 sequence (P63138 26-474 E206W): as the sequence (P63138 26-474) above, with E181W counted along it
T3 sequence (P18508 39-466 partner): as the sequence (P18508 39-466 partner) above
T2 sequence (P62813 28-455): as the sequence (P62813 28-455 K131W) above, with W104K counted along it
T2 sequence (P63138 26-474 E206D): as the sequence (P63138 26-474) above, with E181D counted along it
T2 sequence (P18508 39-466 partner): as the sequence (P18508 39-466 partner) above
T4 sequence (P62813 28-455 K182R): as the sequence (P62813 28-455 K131W) above, with W104K, K155R counted along it
T4 sequence (P63138 26-474): as the sequence (P63138 26-474) above
T4 sequence (P18508 39-466 partner): as the sequence (P18508 39-466 partner) above
T7 sequence (P62813 28-455 K182W): as the sequence (P62813 28-455 K131W) above, with W104K, K155W counted along it
T7 sequence (P63138 26-474): as the sequence (P63138 26-474) above
T7 sequence (P18508 39-466 partner): as the sequence (P18508 39-466 partner) above
T6 sequence (P62813 28-455 E164D): as the sequence (P62813 28-455 K131W) above, with W104K, E137D counted along it
T6 sequence (P63138 26-474): as the sequence (P63138 26-474) above
T6 sequence (P18508 39-466 partner): as the sequence (P18508 39-466 partner) above
T11 sequence (P62813 28-455): as the sequence (P62813 28-455 K131W) above, with W104K counted along it
T11 sequence (P63138 26-474 I205A): as the sequence (P63138 26-474) above, with I180A counted along it
T11 sequence (P18508 39-466 partner): as the sequence (P18508 39-466 partner) above
T14 sequence (P62813 28-455): as the sequence (P62813 28-455 K131W) above, with W104K counted along it
T14 sequence (P63138 26-474 V202A): as the sequence (P63138 26-474) above, with V177A counted along it
T14 sequence (P18508 39-466 partner): as the sequence (P18508 39-466 partner) above
T8 sequence (P23576 29-451): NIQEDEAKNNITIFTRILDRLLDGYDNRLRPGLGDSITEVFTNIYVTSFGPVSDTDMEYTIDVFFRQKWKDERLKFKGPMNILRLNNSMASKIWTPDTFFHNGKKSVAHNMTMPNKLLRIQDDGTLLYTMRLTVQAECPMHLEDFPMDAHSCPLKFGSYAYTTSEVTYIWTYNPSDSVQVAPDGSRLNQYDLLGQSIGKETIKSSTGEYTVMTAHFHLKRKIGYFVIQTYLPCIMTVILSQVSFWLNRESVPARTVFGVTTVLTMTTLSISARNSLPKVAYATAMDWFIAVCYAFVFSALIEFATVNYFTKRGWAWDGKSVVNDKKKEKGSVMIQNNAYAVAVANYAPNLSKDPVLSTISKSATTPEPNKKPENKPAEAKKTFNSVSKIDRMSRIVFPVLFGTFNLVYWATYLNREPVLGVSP
T8 sequence (P63138 26-474): as the sequence (P63138 26-474) above
T8 sequence (P18508 39-466 partner): as the sequence (P18508 39-466 partner) above
T10 sequence (P62813 28-455 E235A): as the sequence (P62813 28-455 K131W) above, with W104K, E208A counted along it
T10 sequence (P63138 26-474): as the sequence (P63138 26-474) above
T10 sequence (P18508 39-466 partner): as the sequence (P18508 39-466 partner) above
T13 sequence (P62813 28-455 T233A): as the sequence (P62813 28-455 K131W) above, with W104K, T206A counted along it
T13 sequence (P63138 26-474): as the sequence (P63138 26-474) above
T13 sequence (P18508 39-466 partner): as the sequence (P18508 39-466 partner) above
T9 sequence (P62813 28-455 Y186A): as the sequence (P62813 28-455 K131W) above, with W104K, Y159A counted along it
T9 sequence (P63138 26-474): as the sequence (P63138 26-474) above
T9 sequence (P18508 39-466 partner): as the sequence (P18508 39-466 partner) above
T15 sequence (P62813 28-455 F126A): as the sequence (P62813 28-455 K131W) above, with F99A, W104K counted along it
T15 sequence (P63138 26-474): as the sequence (P63138 26-474) above
T15 sequence (P18508 39-466 partner): as the sequence (P18508 39-466 partner) above
T16 sequence (P62813 28-455 S232A): as the sequence (P62813 28-455 K131W) above, with W104K, S205A counted along it
T16 sequence (P63138 26-474): as the sequence (P63138 26-474) above
T16 sequence (P18508 39-466 partner): as the sequence (P18508 39-466 partner) above
T12 sequence (P62813 28-455 S185A): as the sequence (P62813 28-455 K131W) above, with W104K, S158A counted along it
T12 sequence (P63138 26-474): as the sequence (P63138 26-474) above
T12 sequence (P18508 39-466 partner): as the sequence (P18508 39-466 partner) above

Q: Which activity at 100 µM (αK104Wβγ GABAAR; Glu 100 μM) does the source give for N[C@@H](CCC(=O)O)C(=O)O [glutamate, Glutamate] here?
A: 17.8 ± 15.3%

Q: And the activity at 1000 µM (αK104Wβγ GABAAR; Glu 1 mM)?
A: 50.8 ± 17.2%

Q: And the activity at 100 µM (αβE181Dγ GABAAR; Glu 100 μM)?
A: 155 ± 39.5%

Q: What about the activity at 1000 µM (αβE181Dγ GABAAR; Glu 1 mM) of the same compound?
A: 102 ± 24.5%

Q: What about the activity at 100 µM (αβE181Wγ GABAAR; Glu 100 μM) of the same compound?
A: 5.4 ± 4.9%

Q: What about the activity at 1000 µM (αβE181Wγ GABAAR; Glu 1 mM) of the same compound?
A: 7.6 ± 4.3%

Q: What about the activity at 100 µM (αK155Rβγ GABAAR; Glu 100 μM) of the same compound?
A: 88.4 ± 22.5%

Q: And the activity at 1000 µM (αK155Rβγ GABAAR; Glu 1 mM)?
A: 106 ± 20.4%

Q: And the activity at 100 µM (αE137Wβγ GABAAR; Glu 100 μM)?
A: 14.7 ± 6.3%

Q: What about the activity at 1000 µM (αE137Wβγ GABAAR; Glu 1 mM) of the same compound?
A: 21.1 ± 4.4%

Q: And the activity at 100 µM (αE137Dβγ GABAAR; Glu 100 μM)?
A: 106 ± 18.3%

Q: What about the activity at 1000 µM (αE137Dβγ GABAAR; Glu 1 mM) of the same compound?
A: 91.5 ± 15.4%

Q: And the activity at 100 µM (αK155Wβγ GABAAR; Glu 100 μM)?
A: 4 ± 4.7%

Q: And the activity at 1000 µM (αK155Wβγ GABAAR; Glu 1 mM)?
A: 29.9 ± 8.8%

Q: And the “potentiation of GABA currents by glutamate” value (α2/β2/γ2 GABAARs)?
A: capable of potentiating GABA currents

Q: What about the Relative potentiation (α1^Y159A β2 γ2 GABAAR) of the same compound?
A: 90.8 ± 26.7%

Q: And the Relative potentiation (α1^E208A β2 γ2 GABAAR)?
A: 90.9 ± 28.7%

Q: What about the Relative potentiation (α1 β2 ^I180A γ2 GABAAR) of the same compound?
A: 18.8 ± 12.9%

Q: And the Relative potentiation (α1^S158A β2 γ2 GABAAR)?
A: 106.9 ± 39.8%

Q: And the Relative potentiation (α1^T206A β2 γ2 GABAAR)?
A: 129.3 ± 61.7%

Q: What about the Relative potentiation (α1 β2^V177A γ2 GABAAR) of the same compound?
A: 89.5 ± 28.3%

Q: And the Relative potentiation (α1^F99A β2 γ2 GABAAR)?
A: 96.4 ± 23.0%

Q: What about the Relative potentiation (α1^S205A β2 γ2 GABAAR) of the same compound?
A: 113.1 ± 33.0%
